# Laboratory results reported in ChEMBL document CHEMBL1201862, “PubChem BioAssay data set” (2004).
#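 How tested: cells in 96-well plates exposed to compound for 48 hours at five concentrations. Abbreviation: GI50, concentration required for 50% inhibition of growth.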 Active and inactive are the calls of the source. Cut-off read from the data, not from the text of the source: active = GI50 up to about 1.1 µM and inactive = higher.
# Assays:
# Assay in all cases: NCI-60 cell line screen, 48 h
# [1] = system: 786-0
# [2] = system: A498
# [3] = system: A549
# [4] = system: ACHN
# [5] = system: CAKI-1
# [6] = system: CCRF-CEM
# [7] = system: COLO 205
# [8] = system: DLD-1
# [9] = system: DMS-114
# [10] = system: DMS-273
# [11] = system: EKVX
# [12] = system: HCC 2998
# [13] = system: HCT-116
# [14] = system: HL-60
# [15] = system: HOP-18
# [16] = system: HOP-62
# [17] = system: HOP-92
# [18] = system: HT-29
# [19] = system: IGROV-1
# [20] = system: K562
# [21] = system: KM-20L2
# [22] = system: KM12
# [23] = system: LOX IMVI
# [24] = system: LXFL 529
# [25] = system: M14
# [26] = system: M19-MEL
# [27] = system: MOLT-4
# [28] = system: Malme-3M
# [29] = system: NCI-H226
# [30] = system: NCI-H23
# [31] = system: NCI-H522
# [32] = system: OVCAR-3
# [33] = system: OVCAR-4
# [34] = system: OVCAR-5
# [35] = system: OVCAR-8
# [36] = system: RPMI-8226
# [37] = system: RXF 393
# [38] = system: SF-268
# [39] = system: SF-295
# [40] = system: SF-539
# [41] = system: SK-MEL-28
# [42] = system: SK-MEL-2
# [43] = system: SK-MEL-5
# [44] = system: SK-OV-3
# [45] = system: SN12C
# [46] = system: SNB-19
# [47] = system: SNB-75
# [48] = system: SNB-78
# [49] = system: SR
# [50] = system: SW-620
# [51] = system: TK-10
# [52] = system: U-251
# [53] = system: UACC-257
# [54] = system: UACC-62
# [55] = system: XF498
# [56] = system: HCT-15
# [57] = system: RXF 631
# [58] = system: UO-31
# [59] = system: NCI-H460
smiles,measurement,setting,value
CC(C)(CN1CCCCC1)C(=O)/C=C/c1ccc(Br)cc1,GI50,[1],2.15 µM (inactive)
same,GI50,[2],2.58 µM (inactive)
same,GI50,[3],2.86 µM (inactive)
same,GI50,[4],3.4 µM (inactive)
same,GI50,[5],0.887 µM (active)
same,GI50,[6],2.77 µM (inactive)
same,GI50,[7],2.25 µM (inactive)
same,GI50,[8],3.01 µM (inactive)
same,GI50,[9],1.47 µM (inactive)
same,GI50,[10],2 µM (inactive)
same,GI50,[11],2.12 µM (inactive)
same,GI50,[12],16.5 µM (inactive)
same,GI50,[13],2.77 µM (inactive)
same,GI50,[14],2.4 µM (inactive)
same,GI50,[15],2.47 µM (inactive)
same,GI50,[16],3.85 µM (inactive)
same,GI50,[17],0.875 µM (active)
same,GI50,[18],3.1 µM (inactive)
same,GI50,[19],2.79 µM (inactive)
same,GI50,[20],2.59 µM (inactive)
same,GI50,[21],2.49 µM (inactive)
same,GI50,[22],3 µM (inactive)
same,GI50,[23],2.03 µM (inactive)
same,GI50,[24],1.81 µM (inactive)
same,GI50,[25],2.29 µM (inactive)
same,GI50,[26],14.8 µM (inactive)
same,GI50,[27],2.28 µM (inactive)
same,GI50,[28],5.74 µM (inactive)
same,GI50,[29],5.78 µM (inactive)
same,GI50,[30],2.77 µM (inactive)
same,GI50,[31],1.82 µM (inactive)
same,GI50,[32],2.07 µM (inactive)
same,GI50,[33],4.31 µM (inactive)
same,GI50,[34],2.78 µM (inactive)
same,GI50,[35],2.39 µM (inactive)
same,GI50,[36],3.07 µM (inactive)
same,GI50,[37],1.35 µM (inactive)
same,GI50,[38],2.34 µM (inactive)
same,GI50,[39],5.09 µM (inactive)
same,GI50,[40],2.09 µM (inactive)
same,GI50,[41],3.99 µM (inactive)
same,GI50,[42],3.69 µM (inactive)
same,GI50,[43],4.67 µM (inactive)
same,GI50,[44],3.04 µM (inactive)
same,GI50,[45],2.57 µM (inactive)
same,GI50,[46],2.01 µM (inactive)
same,GI50,[47],5.89 µM (inactive)
same,GI50,[48],8.07 µM (inactive)
same,GI50,[49],2.45 µM (inactive)
same,GI50,[50],2.56 µM (inactive)
same,GI50,[51],3.13 µM (inactive)
same,GI50,[52],2.65 µM (inactive)
same,GI50,[53],6.31 µM (inactive)
same,GI50,[54],6.56 µM (inactive)
same,GI50,[55],2.05 µM (inactive)
O=C1CN(c2ccccc2)C(=O)C1C(=O)Nc1ccc(Cl)c(Cl)c1 (stereo not given),GI50,[3],2.72 µM (inactive)
same,GI50,[4],4 µM (inactive)
same,GI50,[6],1.84 µM (inactive)
same,GI50,[7],8.07 µM (inactive)
same,GI50,[8],5.08 µM (inactive)
same,GI50,[9],2.76 µM (inactive)
same,GI50,[10],3.1 µM (inactive)
same,GI50,[56],1.56 µM
same,GI50,[14],0.667 µM (active)
same,GI50,[16],2.22 µM (inactive)
same,GI50,[17],2.53 µM (inactive)
same,GI50,[18],3.68 µM (inactive)
same,GI50,[19],2.33 µM (inactive)
same,GI50,[20],0.604 µM (active)
same,GI50,[21],4.41 µM (inactive)
same,GI50,[24],1.65 µM (inactive)
same,GI50,[25],1.79 µM (inactive)
same,GI50,[26],1.77 µM (inactive)
same,GI50,[27],2.33 µM (inactive)
same,GI50,[30],7.31 µM (inactive)
same,GI50,[31],2.05 µM (inactive)
same,GI50,[32],3.15 µM (inactive)
same,GI50,[33],11.7 µM (inactive)
same,GI50,[34],30.4 µM (inactive)
same,GI50,[57],3.59 µM (inactive)
same,GI50,[38],6.32 µM (inactive)
same,GI50,[39],3.72 µM (inactive)
same,GI50,[40],3.85 µM (inactive)
same,GI50,[41],7.43 µM (inactive)
same,GI50,[43],1.36 µM (inactive)
same,GI50,[44],5.19 µM (inactive)
same,GI50,[45],4.73 µM (inactive)
same,GI50,[46],4.62 µM (inactive)
same,GI50,[47],0.973 µM (active)
same,GI50,[49],0.581 µM (active)
same,GI50,[50],1.21 µM (inactive)
same,GI50,[51],7.05 µM (inactive)
same,GI50,[52],3.78 µM (inactive)
same,GI50,[53],8.28 µM (inactive)
same,GI50,[54],1.73 µM (inactive)
same,GI50,[58],4.12 µM (inactive)
O=C(Nc1c(O)[nH]c(=S)[nH]c1=O)c1ccccc1F,GI50,[1],> 100 µM (inactive)
same,GI50,[2],> 100 µM (inactive)
same,GI50,[3],> 100 µM (inactive)
same,GI50,[4],> 100 µM (inactive)
same,GI50,[5],> 100 µM (inactive)
same,GI50,[6],> 100 µM (inactive)
same,GI50,[7],> 100 µM (inactive)
same,GI50,[8],> 100 µM (inactive)
same,GI50,[9],> 100 µM (inactive)
same,GI50,[13],> 100 µM (inactive)
same,GI50,[56],> 100 µM
same,GI50,[14],> 100 µM (inactive)
same,GI50,[15],> 100 µM (inactive)
same,GI50,[16],> 100 µM (inactive)
same,GI50,[17],> 100 µM (inactive)
same,GI50,[18],> 100 µM (inactive)
same,GI50,[19],> 100 µM (inactive)
same,GI50,[20],> 100 µM (inactive)
same,GI50,[21],> 100 µM (inactive)
same,GI50,[22],> 100 µM (inactive)
same,GI50,[23],> 100 µM (inactive)
same,GI50,[24],> 100 µM (inactive)
same,GI50,[25],> 100 µM (inactive)
same,GI50,[26],> 100 µM (inactive)
same,GI50,[27],> 100 µM (inactive)
same,GI50,[28],> 100 µM (inactive)
same,GI50,[29],> 100 µM (inactive)
same,GI50,[30],> 100 µM (inactive)
same,GI50,[59],> 100 µM (inactive)
same,GI50,[31],> 100 µM (inactive)
same,GI50,[32],> 100 µM (inactive)
same,GI50,[33],> 100 µM (inactive)
same,GI50,[34],> 100 µM (inactive)
same,GI50,[35],> 100 µM (inactive)
same,GI50,[36],> 100 µM (inactive)
same,GI50,[57],> 100 µM (inactive)
same,GI50,[38],> 100 µM (inactive)
same,GI50,[39],> 100 µM (inactive)
same,GI50,[40],> 100 µM (inactive)
same,GI50,[41],> 100 µM (inactive)
same,GI50,[42],> 100 µM (inactive)
same,GI50,[43],> 100 µM (inactive)
same,GI50,[44],> 100 µM (inactive)
same,GI50,[45],> 100 µM (inactive)
same,GI50,[46],> 100 µM (inactive)
same,GI50,[47],> 100 µM (inactive)
same,GI50,[48],> 100 µM (inactive)
same,GI50,[49],> 100 µM (inactive)
same,GI50,[50],> 100 µM (inactive)
same,GI50,[51],> 100 µM (inactive)
same,GI50,[52],> 100 µM (inactive)
same,GI50,[53],> 100 µM (inactive)
same,GI50,[54],> 100 µM (inactive)
same,GI50,[58],> 100 µM (inactive)
Cc1c(C)c2cc3c(=O)ccoc3c(C)c2oc1=O,GI50,[1],> 100 µM (inactive)
same,GI50,[2],> 100 µM (inactive)
same,GI50,[3],> 100 µM (inactive)
same,GI50,[4],> 100 µM (inactive)
same,GI50,[6],44 µM (inactive)
same,GI50,[7],47 µM (inactive)
same,GI50,[9],48.3 µM (inactive)
same,GI50,[11],> 100 µM (inactive)
same,GI50,[12],> 100 µM (inactive)
same,GI50,[56],> 100 µM
same,GI50,[14],50.2 µM (inactive)
same,GI50,[15],41.6 µM (inactive)
same,GI50,[16],> 100 µM (inactive)
same,GI50,[19],39.8 µM (inactive)
same,GI50,[20],> 100 µM (inactive)
same,GI50,[21],> 100 µM (inactive)
same,GI50,[22],> 100 µM (inactive)
same,GI50,[23],54 µM (inactive)
same,GI50,[24],80.4 µM (inactive)
same,GI50,[25],> 100 µM (inactive)
same,GI50,[26],70.6 µM (inactive)
same,GI50,[27],20.9 µM (inactive)
same,GI50,[28],> 100 µM (inactive)
same,GI50,[29],29.8 µM (inactive)
same,GI50,[30],> 100 µM (inactive)
same,GI50,[59],> 100 µM (inactive)
same,GI50,[31],69.8 µM (inactive)
same,GI50,[32],> 100 µM (inactive)
same,GI50,[34],> 100 µM (inactive)
same,GI50,[35],> 100 µM (inactive)
same,GI50,[36],> 100 µM (inactive)
same,GI50,[37],25 µM (inactive)
same,GI50,[57],83 µM (inactive)
same,GI50,[38],71.3 µM (inactive)
same,GI50,[39],> 100 µM (inactive)
same,GI50,[40],85.5 µM (inactive)
same,GI50,[41],> 100 µM (inactive)
same,GI50,[42],> 100 µM (inactive)
same,GI50,[43],> 100 µM (inactive)
same,GI50,[44],57.1 µM (inactive)
same,GI50,[45],56.6 µM (inactive)
same,GI50,[46],48.6 µM (inactive)
same,GI50,[47],15 µM (inactive)
same,GI50,[48],> 100 µM (inactive)
same,GI50,[50],> 100 µM (inactive)
same,GI50,[51],> 100 µM (inactive)
same,GI50,[52],> 100 µM (inactive)
same,GI50,[53],> 100 µM (inactive)
same,GI50,[54],21.9 µM (inactive)
same,GI50,[58],24.4 µM (inactive)
